This is an account of results in PubChem BioAssay (NCI).

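Interpolation was linear, between the two tested concentrations surrounding the appropriate level; five concentrations were tested over 48 hours in 96-well plates. Abbreviation: GI50, concentration required for 50% inhibition of growth. TGI is the concentration that stops growth completely.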

The subject of one experiment is NCI-H226 lung. The experiment is described as follows: NCI tumour cell line growth inhibition, 48 h.
As for `O=C(Nc1ccc(Cl)cc1)c1cccc(NC2=C(Cl)C(=O)N(Cc3ccccc3)C2=O)c1`, the GI50 was 4.31 µM and the TGI stood at 21.3 µM.
As to `Nc1ncnc2n[nH]c(Nc3ccc(F)cc3)c12`, the GI50 was 51 µM and the TGI was above 100 µM.
For `CCN(CC)c1ccc(-c2cc(-c3cc(OC)c(OC)c(OC)c3)nc(N3CCOCC3)c2C#N)cc1`, the GI50 is 2.34 µM and the TGI turned out to be 42.2 µM.
As to `CC(=O)OC1=CC(n2cc(F)c(=O)[nH]c2=O)OC(C)C1=O` (configuration not stated), the TGI is above 100 µM.
As for `CC(=O)[C@@]12O[C@@H]1CC1C3CCC4=CC(O)CCC4(C)C3CCC12C` (some centres not stated), the GI50 is 75.9 µM and the TGI was above 100 µM.
As for `NC1(C(=O)OCc2ccccc2)CCCC1`, the TGI was 91.7 µM.
Take `Cc1cc(/C=C/c2ccc3cc(N(C)C)ccc3[n+]2C)c(C)n1-c1ccccc1`: the GI50 is 0.117 µM and the TGI came out at 0.74 µM.
Take `Cn1cnc([N+](=O)[O-])c1S(=O)(=O)Oc1cccc2ccccc12`: the GI50 was 3.79 µM and the TGI worked out at 31 µM.
For `Fc1cc2[nH]ncc2c2c3c(c(-c4cn[nH]c4)nc12)CCCC3`, the GI50 is 1.28 µM and the TGI turned out to be 5.85 µM.
Regarding `COc1cc(OC)cc(-c2cc(=O)c3c(OC)c(OC)c(OC)c(OC)c3o2)c1`, the TGI was above 100 µM.
With `C=C(Br)C(C)(Br)CCC(Br)C(C)(C)Cl` (configuration not stated), the TGI came out at 81.3 µM.
The same measure, in the same setting: the same measure for `CSc1nc(NC2OCC(OC(C)=O)C(OC(C)=O)C2OC(C)=O)c(N=CC=Nc2c(NC3OCC(OC(C)=O)C(OC(C)=O)C3OC(C)=O)nc(SC)[nH]c2=O)c(=O)[nH]1` (configuration not stated): above 88.8 µM.
`O=C1c2cc3c(cc2-c2c1c1ccc(F)cc1c(=O)n2CCCNCCO)OCO3`: the GI50 was 0.0411 µM and the TGI turned out to be 0.192 µM.
`O=C1OC(O)[C@@H]2[C@H]1[C@H]1CC[C@@H]2O1` (some centres not stated): the GI50 is above 79.4 µM and the TGI is above 100 µM.
As for `COc1cccc(-c2nc(-c3ccc(NC(=O)C(C)C)cc3)[nH]c2-c2ccnc(Br)c2)c1`, the GI50 is 2.53 µM and the TGI was 21.4 µM.
On the same counts, the results for `COc1ccc(-c2nnc(COc3ccc(NC(=O)Nc4cc(C(F)(F)F)cc(C(F)(F)F)c4)cc3F)o2)cc1` are 2.63 µM and 9.69 µM.
In the case of `COc1ccc(/C=C(/C#N)n2nnc3cccc(F)c32)cc1`, the GI50 was 2.87 µM and the TGI was determined as 53.8 µM.

A further experiment deals with OVCAR-5 ovarian. Kind of experiment: NCI tumour cell line growth inhibition, 48 h.
Take `O=C(Nc1ccc(Cl)cc1)c1cccc(NC2=C(Cl)C(=O)N(Cc3ccccc3)C2=O)c1`: the GI50 is 13.4 µM and the TGI amounted to 36.6 µM.
On to `Nc1ncnc2n[nH]c(Nc3ccc(F)cc3)c12`, for which the GI50 was 60 µM and the TGI was above 100 µM.
Take `CCN(CC)c1ccc(-c2cc(-c3cc(OC)c(OC)c(OC)c3)nc(N3CCOCC3)c2C#N)cc1`: the GI50 was 1.42 µM and the TGI was above 68.2 µM.
The compound `CC(=O)OC1=CC(n2cc(F)c(=O)[nH]c2=O)OC(C)C1=O` (configuration not stated) yielded a TGI above 100 µM.
Take `CC(=O)[C@@]12O[C@@H]1CC1C3CCC4=CC(O)CCC4(C)C3CCC12C` (some centres not stated): the GI50 was 27.9 µM and the TGI turned out to be 88.3 µM.
`NC1(C(=O)OCc2ccccc2)CCCC1`: the TGI was determined as 85.7 µM.
`Cc1cc(/C=C/c2ccc3cc(N(C)C)ccc3[n+]2C)c(C)n1-c1ccccc1`: the GI50 is 0.688 µM and the TGI was 12.4 µM.
On the same counts, the results for `Cn1cnc([N+](=O)[O-])c1S(=O)(=O)Oc1cccc2ccccc12` are 7.55 µM and 27.8 µM.
Take `Fc1cc2[nH]ncc2c2c3c(c(-c4cn[nH]c4)nc12)CCCC3`: the GI50 was 2.13 µM and the TGI was found to be 12.2 µM.
For `COc1cc(OC)cc(-c2cc(=O)c3c(OC)c(OC)c(OC)c(OC)c3o2)c1`, the TGI was above 100 µM.
Turning to `C=C(Br)C(C)(Br)CCC(Br)C(C)(C)Cl` (configuration not stated), the TGI worked out at 39.7 µM.
`CSc1nc(NC2OCC(OC(C)=O)C(OC(C)=O)C2OC(C)=O)c(N=CC=Nc2c(NC3OCC(OC(C)=O)C(OC(C)=O)C3OC(C)=O)nc(SC)[nH]c2=O)c(=O)[nH]1` (configuration not stated) had a TGI above 100 µM.
As for `O=C1c2cc3c(cc2-c2c1c1ccc(F)cc1c(=O)n2CCCNCCO)OCO3`, the GI50 was 0.242 µM and the TGI was determined as 1.23 µM.
Regarding `O=C1OC(O)[C@@H]2[C@H]1[C@H]1CC[C@@H]2O1` (some centres not stated), the GI50 is 57.3 µM and the TGI was above 100 µM.
In the case of `COc1cccc(-c2nc(-c3ccc(NC(=O)C(C)C)cc3)[nH]c2-c2ccnc(Br)c2)c1`, the GI50 is 4.69 µM and the TGI was above 100 µM.
As to `COc1ccc(-c2nnc(COc3ccc(NC(=O)Nc4cc(C(F)(F)F)cc(C(F)(F)F)c4)cc3F)o2)cc1`, the GI50 is 2.76 µM and the TGI came to 9.49 µM.
With `COc1ccc(/C=C(/C#N)n2nnc3cccc(F)c32)cc1`, the GI50 is 1.82 µM and the TGI was found to be 4.56 µM.

In the next experiment the test system is OVCAR-8 ovarian. The experiment is described as follows: NCI tumour cell line growth inhibition, 48 h.
Consider `O=C(Nc1ccc(Cl)cc1)c1cccc(NC2=C(Cl)C(=O)N(Cc3ccccc3)C2=O)c1`, for which the GI50 was 10 µM and the TGI was 21.6 µM.
`Nc1ncnc2n[nH]c(Nc3ccc(F)cc3)c12`: the GI50 is 22.5 µM and the TGI is above 100 µM.
As to `CCN(CC)c1ccc(-c2cc(-c3cc(OC)c(OC)c(OC)c3)nc(N3CCOCC3)c2C#N)cc1`, the GI50 was 1.91 µM and the TGI is above 100 µM.
`CC(=O)OC1=CC(n2cc(F)c(=O)[nH]c2=O)OC(C)C1=O` (configuration not stated): the TGI is above 100 µM.
Consider `CC(=O)[C@@]12O[C@@H]1CC1C3CCC4=CC(O)CCC4(C)C3CCC12C` (some centres not stated), for which the GI50 was 23.3 µM and the TGI stood at 82.3 µM.
The compound `NC1(C(=O)OCc2ccccc2)CCCC1` displayed a TGI of 37.4 µM.
`Cc1cc(/C=C/c2ccc3cc(N(C)C)ccc3[n+]2C)c(C)n1-c1ccccc1`: the GI50 was 0.143 µM and the TGI came to 0.76 µM.
On the same counts, the results for `Cn1cnc([N+](=O)[O-])c1S(=O)(=O)Oc1cccc2ccccc12` are 4.62 µM and 18.7 µM.
